Data published in patent publication US20220362279A1, “USE OF OLIGONUCLEOTIDES FOR THE TREATMENT AND PREVENTION OF PAIN” (CONSEJO NACIONAL DE INVESTIGACIONES CIENTÍFICAS Y TÉCNICAS, priority 2018, published 2022).
Where a name gives a salt, the structure may show the parent alone.

Assays:
[1] = test system: rats with postsurgical pain (plantar incision); assay: Naloxone challenge in IMT504-pre-treated rats with plantar incision, mechanical withdrawal threshold; format: in vivo, rat; settings: IMT504-treated injured rats; naloxone 2 mg/kg i.p. on day 3 after injury
Description: In all experiments, the oligodeoxynucleotide (ODN) IMT504, with sequence 5′-[sequence]-3′ (SEQ ID No 1) was used. The HPLC-grade phosphorothioate ODN (Biosynthesis Inc., Lewisville, Tex., USA) was suspended in sterile saline solution (VEH, 0.9% NaCl; 20 mg/ml; storage concentration) and assayed for LPS contamination. Working concentration doses (6 mg/kg) were obtained by additional dissolving in sterile VEH. The ODN was administered subcutaneously, at a final volume of 200-300 μl, depending on animal weight.
A group of rats also received an intraperitoneal (i.p.) injection of naloxone hydrochloride (Narxona 0.4 mg/ml; Scott-Cassara, Bs. As., Argentina), at a dose of 2 mg/kg, in order to test if the effect of IMT504 could be blocked by the pan-opioid receptor antagonist.
The rat hind paw plantar incision model of postoperative pain was used as previously described [Brennan, T. J., E. P. Vandermeulen, and G. F. Gebhart, Characterization of a rat model of incisional pain. […] Briefly, rats were anesthetized using isoflurane (5% induction, 2.5% maintenance, 0.8 l/min O2 flow rate; Piramal Healthcare, UK) and the plantar aspect of the right hind paw was disinfected with povidone iodine. A 1.0-cm longitudinal incision was made 0.5 cm from the end of the heel. The underlying flexor muscle was also incised longitudinally, allowing the muscle origin and insertion to remain intact. After hemostasis by gentle pressure, the skin was closed with sutures of 5-0 nylon.
Rats were divided into injured rats receiving IMT504 (6 mg/kg, dissolved in VEH) or VEH alone, 48h and 24 h prior to surgery. […]
Mechanical withdrawal thresholds were assessed by using von Frey nylon monofilaments of different bending forces (1.4, 2, 6, 8, 10, 15 and 26 g; Stoelting Inc., Wooddale, USA) and the modified up-down method of Dixon, as described by Chaplan and cols. (Chaplan, S. R., et al., Quantitative assessment of tactile allodynia in the rat paw. J Neurosci Methods, 1994. 53(1): p. 55-63) , to establish the 50% withdrawal threshold. […]

[2] = test system: rats with postsurgical pain (plantar incision); assay: Opioid sparing: morphine in VEH- or IMT504-pre-treated rats with plantar incision, mechanical withdrawal threshold; format: in vivo, rat; settings: for effect on withdrawal thresholds: VEH-pre-treated injured rats, 6 h and 1 day after injury
Description: In all experiments, the oligodeoxynucleotide (ODN) IMT504, with sequence 5′-[…]-3′ (SEQ ID No 1) was used. The HPLC-grade phosphorothioate ODN (Biosynthesis Inc., Lewisville, Tex., USA) was suspended in sterile saline solution (VEH, 0.9% NaCl; 20 mg/ml; storage concentration) and assayed for LPS contamination. Working concentration doses (6 mg/kg) were obtained by additional dissolving in sterile VEH. The ODN was administered subcutaneously, at a final volume of 200-300 μl, depending on animal weight.
Experiments addressing the opioid sparing effects of IMT504 included the subcutaneous (s.c.) injection of morphine hydrochloride trihydrate (Neocalmans, 10 mg/ml, Soubeiran Chobet, Buenos Aires, Argentina) at three different concentrations (1, 3 or 10 mg/kg, dissolved in sterile distilled water).
The rat hind paw plantar incision model of postoperative pain was used as previously described [Brennan, T. J., E. P. Vandermeulen, and G. F. Gebhart, Characterization of a rat model of incisional pain. Pain, 1996. 64(3): p. 493-501. Briefly, rats were anesthetized using isoflurane (5% induction, 2.5% maintenance, 0.8 l/min O2 flow rate; Piramal Healthcare, UK) and the plantar aspect of the right hind paw was disinfected with povidone iodine. A 1.0-cm longitudinal incision was made 0.5 cm from the end of the heel. The underlying flexor muscle was also incised longitudinally, allowing the muscle origin and insertion to remain intact. After hemostasis by gentle pressure, the skin was closed with sutures of 5-0 nylon.
Rats were divided into injured rats receiving IMT504 (6 mg/kg, dissolved in VEH) or VEH alone, 48h and 24 h prior to surgery. These groups were further subdivided into: 1) Rats followed during 3 days after the injury (n=6 per group), for assessment of pain-like behavior after the co-administration of morphine dissolved in injectable water (vehicle) at different doses, 6 and 24 h after injury; 2) Rats followed during 3 days after the injury (n=6 per group), for assessment of pain-like behavior after the co-administration of injectable water (vehicle) alone, 6 and 24 h after injury; 3) Rats followed during 21 days (n=8), for analysis of the administration of naloxone, 3 days after injury.
Mechanical withdrawal thresholds were assessed by using von Frey nylon monofilaments of different bending forces (1.4, 2, 6, 8, 10, 15 and 26 g; Stoelting Inc., Wooddale, USA) and the modified up-down method of Dixon, as described by Chaplan and cols. (Chaplan, S. R., et al., Quantitative assessment of tactile allodynia in the rat paw. J Neurosci Methods, 1994. 53(1): p. 55-63) , to establish the 50% withdrawal threshold. Results were obtained using the formula: 50% g threshold=[…], where Xf=value (in log units) of the final von Frey hair used; k=tabular value for the pattern of positive/negative responses; and […] difference (in log units) between stimuli. Mechanical withdrawal thresholds were tested 48 h before surgery (basal responses), and 6 h, 1, 3, 7, 14 and 21 days after injury.
A dose-response experiment to evaluate the effect of the s.c. administration of morphine at different doses (10, 3 and 1 mg/kg), 6 h or 1 day after injury, in VEH- or IMT504-treated rats (time-points were chosen based on the fact that a certain degree of mechanical withdrawal threshold alterations was still present in IMT504-treated rats was done, which allowed to test if within this therapeutic window, it was possible to fully revert pain-like behavior using smaller morphine doses). […]

SMILES | withdrawal threshold 15 and 30 min after naloxone [1] | time after injection free of pain-like behavior ([2]; VEH rats receiving 10 mg morphine) [min] | time after administration with fully reversed pain-like behavior ([2]; VEH rats receiving 1 or 3 mg morphine, both time-points) [min] | effect on withdrawal thresholds ([2]; morphine 10 mg/kg s.c.) | effect on withdrawal thresholds ([2]; morphine 3 and 1 mg/kg s.c.)
C=CCN1CC[C@]23c4c5ccc(O)c4O[C@H]2C(=O)CC[C@@]3(O)[C@H]1C5 [naloxone, naloxone hydrochloride, reference compound] | drastic and significant decrease in their withdrawal threshold |  |  |  | 
CN1CC[C@]23c4c5ccc(O)c4O[C@H]2[C@@H](O)C=C[C@H]3[C@H]1C5.Cl.O.O.O [morphine, morphine hydrochloride trihydrate, reference compound] |  | 90 to 180 | 60 | very effective in increasing withdrawal thresholds | milder and comparable effects
